Test results taken from patent US11717635B2, “Argon combined with thrombectomy in the event of ischaemic stroke” (L'Air Liquide, Société Anonyme pour l'Etude et …, priority 2019, dated 2023).

Tested on: transient focal cerebral ischaemia (occlusion of the middle cerebral artery)
Assay: Transient focal cerebral ischaemia (microcoil occlusion of the right MCA, 90 min, then reperfusion mimicking mechanical thrombectomy) with MRI and behavioural follow-up
Format: in vivo, rhesus macaques
Description: The primates used in the study are rhesus macaques, in which it has been possible to obtain a stable and reproducible model of reversible ischaemia mimicking an ischaemic stroke and its reperfusion by mechanical thrombectomy, as explained below. After approval of the project by the ethics committee for animal experimentation, 6 rhesus macaques were randomized in 2 groups of 3 animals per group, namely: • a group treated with argon or “argon group” inhaling, for 90 min in total, a binary gas mixture formed of 60% argon and 40% oxygen (vol. %), the inhalation of the gas beginning 30 min after the start of the ischaemia and extending during and after the thrombectomy procedure (with or without thrombolysis); • a “control group” inhaling a gas mixture formed of 60% nitrogen and 40% oxygen (vol. %). These groups are subjected to a model of transient focal cerebral ischaemia without craniectomy consisting of an occlusion under anaesthesia of the middle cerebral artery (MCA) by deploying a rigid microspring, called a “microcoil”, until the arterial blood flow stops, in the M2 segment of the right MCA. After 90 min of ischaemia, which is the usual average time between the first signs of an ischaemic stroke and the cerebral reperfusion, the “microcoil” was removed and the revascularization confirmed by arteriography. This procedure mimics a blood clot and its removal by mechanical thrombectomy. All the animals are monitored by high-resolution MRI (Prisma 3 Tesla, Siemens) several days before and directly after the ischaemia (3[…], TOF) in order to quantify the cerebral volume made ischaemic (i.e. restriction of the apparent diffusion coefficient) and the cerebral oedema ([…]). Moreover, the functional recovery was monitored in the acute phase in 1 control animal and over the long-term in two animals of the argon group, that is to say over the course of 3 months post-ischaemia. The evaluations were carried out in terms of the clinical and functional neurological recovery with behavioural tests evaluating their fine sensory-motor performances.

**Q.** For `[Ar]` [argon], which lesion volume (argon group (60% argon/40% oxygen, 90 min), control group about 5 ml) is on record?
**A.** about 1 ml

**Q.** What about the “performances in the behavioural tests (fine sensory-motor) post-ischaemia compared with baseline” value (argon group animals monitored 3 months post-ischaemia) of the same compound?
**A.** not significantly impaired

**Q.** What about the “blood-brain barrier state on MRI images” value (argon group, rupture observed in the control group) of the same compound?
**A.** preserved

**Q.** What about the “decrease in the volume of cerebral oedema compared to the control group” value (inhaled 60% argon/40% oxygen for 90 min, begun 30 min after start of ischaemia, MRI T2-FLAIR, P<0.05 vs control) of the same compound?
**A.** 85 % reduction

**Q.** And the “decrease in the cerebral volume infarcted compared to the control group” value (inhaled 60% argon/40% oxygen for 90 min, begun 30 min after start of ischaemia, MRI, P<0.05 vs 60% nitrogen/40% oxygen control)?
**A.** 83 % reduction

**Q.** And the “clinical and functional neurological recovery” value (two animals of the argon group monitored 3 months post-ischaemia, deficit = left leg paresis)?
**A.** rapid recovery with only a minor and transient neurological deficit
